Where two headings read alike, the source gives them in different places.
Columns and labels:
THP-1 cells = test: TNF-alpha promoter secreted alkaline phosphatase (TNF-PLAP) reporter in THP-1 cells; assay type: cell-based, human
Method: Similar results can be obtained when compounds of the invention are tested in a cell-culture model. In this assay, compounds of the invention are tested for their ability to stimulate secretion of alkaline phosphatase from THP-1 cells that have been transfected with the gene for secreted alkaline phosphatase under the control of the TNF-alpha promoter, as described in detail in Goto et al., Molecular Pharmacology 49; 860-873 (1996). In this assay, however, the effects of removing serum^1—a condition that may more-likely mimic a subcutaneous environment—can be evaluated. As shown in FIG. 2 and described in Table 1, results from these assays indicate that compounds of the invention stimulate induction of genes under the control of the TNF-alpha promoter when added to cells in the absence as well as the presence of serum. ^1 This is important to determine if serum components such as lipopolysaccharide binding protein are necessary for drug activity.

Human Whole Blood = test: Cytokine release in human whole blood (ELISA); assay type: cell-based; settings: for EC50: whole blood, read-out: WB ED50 vs LPS@ 10 ng/ml; for TNF-alpha release in whole blood at 10 μM compound (% of 10 ng/ml LPS response): compounds tested at 10 μM, compared to 10 ng/ml LPS, 3-hour incubation
Method: The most readily available human system to test compound activity on monocytes/macrophages is in whole blood. Various concentrations of compounds of the invention were added as 10× stocks in 50 μl of Ca^++, Mg^++-free Hank's balanced salt solution (HBSS) followed by 50 μl of HBSS into 400 μl of heparinized whole blood obtained from normal volunteers (18-51 years old; 110-230 lb.) into the wells of plastic assay plates, for a total volume of 500 μl/well (final concentration of whole blood was 80%). After a 3-hour incubation with gentle shaking at 37° C. in a 5% CO2 atmosphere, the assay plates were centrifuged at 1000×g for 10 min. at 4° C. and plasma was drawn off and frozen at −80° C. Plasma samples were analyzed for TNF-alpha, IL-10, and IL-12 by ELISA (Genzyme Corp., Cambridge, Mass.). Each assay point was tested in triplicate.
This stimulatory activity can be compared to that of 10 ng/ml endotoxin (or LPS) present in similar incubations in the same assay.

| EC50 (Human Whole Blood; vs. % of LPS at 10 ng/ml) [nM] | Structure (SMILES) | other results |
| --- | --- | --- |
| 290 | CCCCCC/C=C\CCCC(=O)O[C@H](CCCCCCC)CCOCC(COP(=O)([O-])OCCNC(=O)CCCCCCCCC(=O)NCCOP(=O)([O-])OCC(COCC[C@@H](CCCCCCC)OC(=O)CCC/C=C\CCCCCC)NC(=O)CC(=O)CCCCCCCCCCC)NC(=O)CC(=O)CCCCCCCCCCC.[Na+].[Na+] (stereo partly shown) [compound 111231] | THP-1 cell Stimulation (% of compound 100 at 10 μM) +serum (THP-1 cells): 17 % of compound 100 at 10 μM |
|  | CCCCCC/C=C\CCCC(=O)O[C@H](CCCCCCC)CCOCC(COP(=O)([O-])OCCNC(=O)NCCOP(=O)([O-])OCC(COCC[C@@H](CCCCCCC)OC(=O)CCC/C=C\CCCCCC)NC(=O)CC(=O)CCCCCCCCCCC)NC(=O)CC(=O)CCCCCCCCCCC.[Na+].[Na+] (stereo partly shown) [compound 111232] | THP-1 cell Stimulation (% of compound 100 at 10 μM) +serum (THP-1 cells): 155 % of compound 100 at 10 μM; THP-1 cell Stimulation (% of compound 100 at 10 μM) −serum (THP-1 cells): 225 % of compound 100 at 10 μM; TNF-alpha release in whole blood at 10 μM compound (% of 10 ng/ml LPS response) (Human Whole Blood): 158 % of LPS |
|  | CCCCCC/C=C\CCCC(=O)O[C@H](CCCCCCC)CCOCC(COP(=O)([O-])OCCNC(=O)CCC(=O)NCCOP(=O)([O-])OCC(COCC[C@@H](CCCCCCC)OC(=O)CCC/C=C\CCCCCC)NC(=O)CC(=O)CCCCCCCCCCC)NC(=O)CC(=O)CCCCCCCCCCC.[Na+].[Na+] (stereo partly shown) [compound 111233] | THP-1 cell Stimulation (% of compound 100 at 10 μM) +serum (THP-1 cells): 141 % of compound 100 at 10 μM |
| 40 | CCCCCCCCCCCC(=O)CC(=O)NC(COCC[C@@H](CCCCCCC)OC(=O)CCCCCCCCCCC)COP(=O)([O-])OCCNC(=O)NCCOP(=O)([O-])OCC(COCC[C@@H](CCCCCCC)OC(=O)CCCCCCCCCCC)NC(=O)CC(=O)CCCCCCCCCCC.[Na+].[Na+] (stereo partly shown) [compound 112066] | THP-1 cell Stimulation (% of compound 100 at 10 μM) +serum (THP-1 cells): 330 % of compound 100 at 10 μM; TNF-alpha release in whole blood at 10 μM compound (% of 10 ng/ml LPS response) (Human Whole Blood): 162 % of LPS |
| 890 | CCCCCCCCCCCCCC(=O)O[C@@H](COCC[C@@H](CCCCCCC)OC(=O)CCCCCCCCCCC)COP(=O)([O-])OCCNC(=O)CC(=O)NCCOP(=O)([O-])OC[C@H](COCC[C@@H](CCCCCCC)OC(=O)CCCCCCCCCCC)OC(=O)CCCCCCCCCCCCC.[Na+].[Na+] [compound 803059] | TNF-alpha release in whole blood at 10 μM compound (% of 10 ng/ml LPS response) (Human Whole Blood): 2 % of LPS |
|  | CCCCCCCCCCCCCC(=O)O[C@@H](COCC[C@@H](CCCCCCC)OC(=O)CCCCCCCCCCC)COP(=O)([O-])OCCNC(=O)NCCOP(=O)([O-])OC[C@H](COCC[C@@H](CCCCCCC)OC(=O)CCCCCCCCCCC)OC(=O)CCCCCCCCCCCCC.[Na+].[Na+] [compound 803592] | TNF-alpha release in whole blood at 10 μM compound (% of 10 ng/ml LPS response) (Human Whole Blood): 15 % of LPS |
| > 10000 | CCCCCCCCCCCCCC(=O)N[C@H](COCC[C@@H](CCCCCCC)OC(=O)CCCCCCCCCCC)COP(=O)(O)OCCNC(=O)CC(=O)NCCOP(=O)(O)OC[C@H](COCC[C@@H](CCCCCCC)OC(=O)CCCCCCCCCCC)NC(=O)CCCCCCCCCCCCC [compound 803731] |  |
| 700 | CCCCCCCCCCCCCC(=O)N[C@H](COCC[C@@H](CCCCCCC)OC(=O)CCCCCCCCCCC)COP(=O)(O)OCCNC(=O)CC(=O)NCCOP(=O)(O)OC[C@H](COCC[C@@H](CCCCCCC)OC(=O)CCCCCCCCCCC)NC(=O)CCCCCCCCCCCCC [compound 803733] |  |
| 100 | CCCCCCCCCCCCCC(=O)N[C@H](COCC[C@@H](CCCCCCC)OC(=O)CCCCCCCCCCC)COP(=O)(O)OCCNC(=O)NCCOP(=O)(O)OC[C@H](COCC[C@@H](CCCCCCC)OC(=O)CCCCCCCCCCC)NC(=O)CCCCCCCCCCCCC [compound 803789] |  |
| 2500 | CCCCCC/C=C\CCCC(=O)O[C@H](CCCCCCC)CCOC[C@@H](COP(=O)(O)OCCNC(=O)CC(=O)NCCOP(=O)(O)OC[C@H](COCC[C@@H](CCCCCCC)OC(=O)CCC/C=C\CCCCCC)NC(=O)CC(=O)CCCCCCCCCCC)NC(=O)CC(=O)CCCCCCCCCCC [compound 804061] |  |
| 300 | CCCCCCCCCCCC(=O)CC(=O)N[C@H](COCC[C@@H](CCCCCCC)OC(=O)CCCCCCCCCCC)COP(=O)(O)OCCNC(=O)NCCOP(=O)(O)OC[C@H](COCC[C@@H](CCCCCCC)OC(=O)CCCCCCCCCCC)NC(=O)CC(=O)CCCCCCCCCCC [compound 804097] |  |
| 460 | CCCCCCCCCCCCCC(=O)N[C@H](COCC[C@H](CCCCCCC)CCCCCCCCCCCC)COP(=O)(O)OCCNC(=O)NCCOP(=O)(O)OC[C@@H](COCC[C@H](CCCCCCC)CCCCCCCCCCCC)NC(=O)CCCCCCCCCCCCC [compound 804121] |  |
| 660 | CCCCCCCCCCCCCC(=O)N[C@H](COCC[C@H](CCCCCCC)CCCCCCCCCCCC)COP(=O)(O)OCCNC(=O)NCCOP(=O)(O)OC[C@@H](COCC[C@H](CCCCCCC)CCCCCCCCCCCC)NC(=O)CCCCCCCCCCCCC [compound 804130] |  |
| 2200 | CCCCCCCCCCCC(=O)NCC(=O)N[C@H](COCC[C@@H](CCCCCCC)OC(=O)CCCCCCCCCCC)COP(=O)(O)OCCNC(=O)NCCOP(=O)(O)OC[C@@H](COCC[C@@H](CCCCCCC)OC(=O)CCCCCCCCCCC)NC(=O)CNC(=O)CCCCCCCCCCC [compound 804221] |  |
|  | CCCCCCCCCCCCCCN[C@@H](COCC[C@@H](CCCCCCC)OC(=O)CCCCCCCCCCC)COP(=O)(O)OCCNC(=O)NCCOP(=O)(O)OC[C@H](COCC[C@@H](CCCCCCC)OC(=O)CCCCCCCCCCC)NCCCCCCCCCCCCCC [compound 804252] | EC50 (Human Whole Blood; (576-021) + EtOH): 400 nM |
| > 10000 | CCCCCCCCCCCCCC(=O)N[C@H](COCC[C@H](CCCCCCC)NC(=O)CCCCCCCCCCC)COP(=O)(O)OCCNC(=O)NCCOP(=O)(O)OC[C@@H](COCC[C@H](CCCCCCC)NC(=O)CCCCCCCCCCC)NC(=O)CCCCCCCCCCCCC [compound 804253] |  |
| 450 | CCCCCCCCCCCCCCN[C@H](COCC[C@@H](CCCCCCC)OC(=O)CCCCCCCCCCC)COP(=O)(O)OCCNC(=O)NCCOP(=O)(O)OC[C@@H](COCC[C@@H](CCCCCCC)OC(=O)CCCCCCCCCCC)NCCCCCCCCCCCCCC [compound 804281] |  |
| 14 | CCCCCCCCCCCCC(O)C(=O)N[C@H](COCC[C@@H](CCCCCCC)OC(=O)CCCCCCCCCCC)COP(=O)(O)OCCNC(=O)NCCOP(=O)(O)OC[C@@H](COCC[C@@H](CCCCCCC)OC(=O)CCCCCCCCCCC)NC(=O)C(O)CCCCCCCCCCCC (stereo partly shown) [compound 804313] |  |
| 1060 | CCCCCCCCCCCCCCN(C(C)=O)[C@H](COCC[C@@H](CCCCCCC)OC(=O)CCCCCCCCCCC)COP(=O)(O)OCCNC(=O)NCCOP(=O)(O)OC[C@@H](COCC[C@@H](CCCCCCC)OC(=O)CCCCCCCCCCC)N(CCCCCCCCCCCCCC)C(C)=O [compound 804339] |  |
| 400 | CCCCCCCCCCCCCC(=O)N[C@H](COCC[C@@H](CCCCCCC)OCCCCCCCCCCCC)COP(=O)(O)OCCNC(=O)NCCOP(=O)(O)OC[C@@H](COCC[C@@H](CCCCCCC)OCCCCCCCCCCCC)NC(=O)CCCCCCCCCCCCC [compound 804372] |  |
|  | CCCCCCCCCCCCCC(=O)N[C@@H](CC[N+](C)(C)CCCNC(=O)NCCC[N+](C)(C)CC[C@@H](COC(=O)C[C@@H](CCCCCCC)OC(=O)CCCCCCCCCCC)NC(=O)CCCCCCCCCCCCC)COC(=O)C[C@@H](CCCCCCC)OC(=O)CCCCCCCCCCC [compound 804947] | EC50 (Human Whole Blood; Homo sapiens, vs. % of LPS at 10 ng/ml): > 10000 nM |

| Structure (SMILES) | EC50 (Human Whole Blood; vs. % of LPS at 10 ng/ml) [nM] | other results |
| --- | --- | --- |
| CCCCCC/C=C\CCCC(=O)O[C@H](CCCCCCC)CCOCC(COP(=O)([O-])OCCNC(=O)CC(=O)NCCOP(=O)([O-])OCC(COCC[C@@H](CCCCCCC)OC(=O)CCC/C=C\CCCCCC)NC(=O)CC(=O)CCCCCCCCCCC)NC(=O)CC(=O)CCCCCCCCCCC.[Na+].[Na+] (stereo partly shown) [compound 113651] | 700 | THP-1 cell Stimulation (% of compound 100 at 10 μM) +serum (THP-1 cells): 215 % of compound 100 at 10 μM; THP-1 cell Stimulation (% of compound 100 at 10 μM) −serum (THP-1 cells): 254 % of compound 100 at 10 μM; TNF-alpha release in whole blood at 10 μM compound (% of 10 ng/ml LPS response) (Human Whole Blood): 133 ± 4.4 (n = 4) % of LPS |
